Columns and labels:
[1] = tested on: PR-1a/T7 polymerase x plastid T7/cellulase plants; experiment: E5 cellulase mRNA content of plants after BTH induction (Northern blot); format: in vivo, Nicotiana tabacum
Description: Homozygous NT-10× and NT-110N plants containing the PR-1a-T7 RNA Pol construct were used to pollinate homoplastidic Nt_pC8E5 and Nt_pC+E5 plastid transformant lines carrying the maternally inherited pC8E5 and pC+E5 cellulase constructs. The Nt_pC+E5×NT-110X or NT--110N, and Nt_pC8E5×NT-110X or NT110N F1 progeny (which were heterozygous for the PR-1/T7 polymerase nuclear expression cassette and homoplastidic for the T7/cellulase plastid expression cassette) were germinated on soil. Upon reaching a height of […], the plants were sprayed with the inducer compound BTH to elicit T7 Pol-regulated expression of the E5 cellulase gene that is localized to the plastids. […]
Total RNA was extracted from frozen tissue of BTH and wettable powder-sprayed control and PR-1a/7 polymerase×plastid T7/cellulase plants, and Northern blot analysis on 5 μg RNA samples was carried out as described (Ward et al. (1991) The Plant Cell 3, 1085-1094) using as a probe a radiolabelled DNA fragment containing the E5 cellulase coding sequence. Relative E5 cellulase mRNA accumulation at each time point was assessed by quantifying the radioactivity in bands hybridizing with the radiolabelled E5 cellulase probe in order to determine time courses of fold mRNA induction. […] Prior to induction, no cellulase mRNA is detected.

[2] = tested on: nuclear PR-1a/GUS transformants; experiment: GUS protein accumulation in nuclear PR-1a/GUS transformants after induction (Western blot); format: in vivo; details: nuclear PR1a/GUS transformants
Procedure: (§1) Total RNA was extracted from frozen tissue of BTH and wettable powder-sprayed control and PR-1a/T7 polymerase×plastid T7/GUS plants, and Northern blot analysis on 5 μg RNA samples was carried out as described (Ward et al. (1991) The Plant Cell 3, 1085-1094) using as a probe a 500 bp radiolabelled 5′ fragment of the GUS gene. […] Example C12 Determination of GUS protein content of transgenic plants In order to determine the amount of GUS present in the tissues of transgenic plants, chemiluminescent (Amersham) Western blot analysis was performed according to the manufacturer's instructions and Harlow and Lane (1988) Antibodies: A laboratory manual, Cold Spring Harbor Laboratory, Cold Spring Harbor, using GUS antisera purchased from Molecular Probes and purified GUS protein standards (Sigma). Proteins from frozen, ground leaf material harvested as above were solubilized by extraction in 50 mM Tris pH 8.0, 1 mM EDTA, 1 mM PTT, 1 mM AEBSP, and 1 mM DTT and 5 to 25 μg protein run on each lane of 10% polyacrylamide gels. GUS protein accumulation in the plastid transformed plants is sustained over 7-28 days and beyond, and is extraordinarily high (much higher than peak GUS accumulation for nuclear PR-1a/GUS), exceeding 20% of total protein by 28 days.

[3] = tested on: PR-1a/T7 polymerase x plastid T7/GUS plants (pPH110X6b x 4276P); experiment: GUS mRNA content of plants sprayed with BTH (Northern blot, ethidium bromide scan); format: in vivo, Nicotiana tabacum
Description: (§2) The N. tabacum ‘Xanthi’ plastid transformant line 4276P described by McBride et al. ((1994) PNAS 91: 7301-7305) was pollinated by homozygous NT-110X6b5 plants containing the PR-1a/T7 RNA polymerase. 4276P differs from pC8 only with respect to (a) the promoter used to express the aadA selectable marker (which has the 16S ribosomal RNA gene promoter rather than the psbA gene promoter used in pC8), (b) the presence of a psbA gene 3′ untranslated region between the GUS gene and the T7 terminator, and (c) the absence of a lac operator and duplicated StuI restriction site sequence in the T7 promoter. F1 plants from this cross heterozygous for the PR-1a/T7 polymerase nuclear expression cassette and homoplastidic for the T7/GUS plastid expression cassette were germinated in soil. Upon reaching a height of 20 to 40 cm the plants were sprayed with either an inert wettable powder suspension or a formulation of the inducer compound BTH with wettable powder. Control untransformed N. tabacum ‘Xanthi’, NT-110X6b-5, and 4276P plants germinated in soil at the same time were sprayed in a similar manner. Plant material (one leaf from each of three independent plants of each genotype) was harvested just prior to spraying and at 8 hours and 1, 2, 3, 7, and 28 days following spraying, and flash frozen as described above.
as §1

[4] = tested on: PR-1a/T7 polymerase x plastid T7/GUS plants; experiment: GUS protein content of plants after BTH induction (Western blot); format: in vivo, Nicotiana tabacum; details: plastid transformed plants
Description: as §2, with “above. […]” for “above.”

[5] = tested on: PR-1a/T7 polymerase x plastid T7/GUS plants (pPH110X6b x 4276P); experiment: GUS activity in leaf extracts of plants sprayed with BTH (fluorometric MUG assay); format: in vivo, Nicotiana tabacum
Description: as §2
Frozen leaf tissue was ground in a mortar with a pestle in the presence of liquid nitrogen to produce a fine powder. Leaf extracts were prepared in GUS extraction buffer (50 mM sodium phosphate pH7.0, 0.1% Triton-X 100, 0.1% sarkosyl, 10 mM β-mercaptoethanol) as described by Jefferson, R. A. et al. (1986), PNAS USA 83, 8447-8451. The reactions were carried out in the wells of opaque microtiter plates by mixing 10 ul of extract with 65 ul of GUS assay buffer (50 mM sodium phosphate pH 7.0, 10 mM EDTA, 0.1% Triton X-100, 10 mM β-mercaptoethanol) containing 4-methyl umbelliferyl glucuronide […] at a final concentration of 2 mM in a total volume of 75 ul. The plate was incubated at 37° C. for 30 minutes and the reaction was stopped by the addition of 225 ul of 0.2 M sodium carbonate. The concentration of fluorescent indicator released was determined by reading the plate on a Flow Labs Fluoroskan II ELISA plate reader. Duplicate fluorescence values for each sample were averaged, and background fluorescence (reaction without MUG) was subtracted to obtain the concentration of MU for each sample. The amount of protein in each extract was determined using the bicinchoninic acid technique (BCA, Pierce Biochemicals) according to the manufacturer's recommendations except that protein extracts were pretreated with iodoacetamide (Sigma) to eliminate background signal caused by the reductant (β-mercaptoethanol) present in the extraction buffer. The specific activity was determined for each sample and was expressed in pmoles MU/mg protein/minute. For each tissue sample assayed from a particular time point following BTH application, the specific activity of the BTH-induced sample was divided by the specific activity of the pre-BTH treatment control sample, thus yielding the induction of GUS expression. (See Table I)

E5 cellulase mRNA accumulation following induction ([1]; plant material of example C6, none detected prior to induction): significant cellulase mRNA accumulation
Structure (SMILES): CSC(=O)c1cccc2nnsc12 [BTH, benzo(1,2,3)thiadiazole-7-carbothioic acid S-methyl ester]
time of peak cellulase mRNA accumulation ([1]; after induction): 14 days
GUS protein accumulation by 28 days ([2]; 28 days): declines to the limits of detection
time of peak GUS protein accumulation ([2]; from induction): about 3 days
% Total RNA (GUS RNA) ([3]; 0.3 days after BTH spray): <0.013%
% Total RNA (GUS RNA) ([3]; 1.0 days after BTH spray): 0.108%
% Total RNA (GUS RNA) ([3]; 2.0 days after BTH spray): 0.873%
% Total RNA (GUS RNA) ([3]; 3.0 days after BTH spray): 2.663%
% Total RNA (GUS RNA) ([3]; 7.0 days after BTH spray): 7.745%
% Total RNA (GUS RNA) ([3]; 28.0 days after BTH spray): 24.596%
peak level of chemically inducible GUS RNA in the plastid, of total ethidium-stainable RNA ([3]; between 7 and 28 days after induction with BTH): 14%
peak GUS RNA relative to peak chemically inducible GUS mRNA accumulation for nuclear PR-1a/GUS transformants ([3]; plastid vs nuclear PR-1a/GUS transformants): over 1000 fold
GUS protein accumulation, of total protein ([4]; by 28 days): exceeding 20%
time of peak/sustained GUS protein accumulation ([4]; from induction): 7 to 28 days
GUS activity (pmol MU/mg/min) ([5]; 0.3 days after BTH spray): 434 pmol MU/mg/min
GUS activity (pmol MU/mg/min) ([5]; 1.0 days after BTH spray): 14,516 pmol MU/mg/min
GUS activity (pmol MU/mg/min) ([5]; 2.0 days after BTH spray): 230,031 pmol MU/mg/min
GUS activity (pmol MU/mg/min) ([5]; 3.0 days after BTH spray): 456,486 pmol MU/mg/min
GUS activity (pmol MU/mg/min) ([5]; 7.0 days after BTH spray): 2,424,725 pmol MU/mg/min
GUS activity (pmol MU/mg/min) ([5]; 28.0 days after BTH spray): 1,922,466 pmol MU/mg/min
